Test results taken from publication PMC8533176, “1,5-Benzodiazepin-2(3H)-ones: In Vitro Evaluation as Antiparkinsonian Agents” (Antioxidants, 2021).

Legend:
[1] = system: SH-SY5Y cells; assay: Mitochondrial superoxide levels (MitoSOX); type: cell-based, human; settings: H2O2 250 µM; compounds 24 h before
Procedure: Mitochondrial superoxide levels were measured with MitoSOX red (3,8-phenanthridinediamine, 5-(60-triphenylphosphoniumhexyl)-5,6-dihydro-6-phenyl) from Molecular Probes (Thermo Fisher Scientific, 29851Willow Creek Road, Eugene, OR, USA). After SH-SY5Y cell treatment in 96-well culture black clear bottom plates, the medium was removed and cells were washed with PBS and afterward, MitoSOX red (final concentration of 5 µM) in 200 µL of PBS was added and incubated for 20 min at 37 °C. After incubation, the cells were washed with warm PBS buffer, and fluorescence was measured at 510 nm excitation/640 nm emission wavelengths in a Varioskan microplate reader (Thermo Fisher Scientific, Vantaa, Finland).

[2] = system: SH-SY5Y cells; assay: Intracellular ROS levels (DCFH2-DA); type: cell-based, human; settings: 400 µM H2O2 4 h; compounds 24 h before
Procedure: Intracellular ROS levels were determined using dichlorofluorescein diacetate (DCFH2-DA) according to Wang et al.. DCFH2-DA is cleaved by intracellular esterases and is oxidized by ROS to form the fluorescent compound DCF, which represents the ROS level. Therefore, 3 × 10^3 SH-SY5Y cells were seeded in 96-well culture black clear bottom plates and after 24 h were treated with the test compound for an additional 24 h. Then, they were exposed to H2O2 for 4 h. After the incubation period, cells were washed twice with Hanks buffer and loaded with 20 µM DCFH2-DA (in FBS-free culture medium) for 40 min in dark at 37 °C in a CO2 incubator. At the end of the dye incubation period, they were washed twice with Hanks buffer to remove the extracellular DCFH2-DA. Fluorescence was measured with a Varioskan microplate reader at λex = 485 nm and λem = 535 nm wavelengths. Results are expressed as a percentage of the fluorescent increase compared with that of the control. All the experiments were performed at least three times in quadruplicate for each compound concentration.

[3] = system: SH-SY5Y cells; assay: Apoptosis and necrosis by flow cytometry (Annexin V-PE/7-AAD); settings: 10 and 20 µM 24 h, then H2O2 1 mM 4 h
[4] = as above; settings: human, SH-SY5Y cells
[5] = system: SH-SY5Y cells; assay: GSH/GSSG ratio; type: cell-based, human; settings: H2O2 500 µM 6 h; 10 and 20 µM 24 h before
Procedure: GSH and GSSG levels were determined by the method of Vikas et al. with slight modifications. In summary, 2 × 10^5 SH-SY5Ycells were seeded in 6-well culture plates. After 24 h, cells were treated with the test compound and incubated for another 24 h. […] Then, cells were washed twice with cold 50 mM PBS buffer, detached, lysed with lysis buffer, and split into two samples: one for GSH analysis and the other for GSSG determination. For GSH analysis, 20 µL of ortho-phthaldehyde (OPT) 20 mg/mL and 280 µL of monobasic potassium phosphate buffer were added per 100 µL of sample replicate. Samples were vortexed and centrifuged at 4 °C at 13,000× g for 10 min. Afterward, 100 µL of supernatant per well was transferred to a black 96-well culture plate with a clear bottom. Fluorescence was measured in a Varioskan plate reader (λex = 360 nm; λem = 420 nm). Sample GSH concentrations were calculated from a standard calibration curve made by serial dilutions of GSH from 0 to 50 µM. […] Fluorescence was measured in a Varioskan plate reader (λex = 360 nm; λem = 420 nm). Sample GSSG concentrations were calculated from a standard calibration curve made by serial dilutions of GSSG from 0 to 200 µM.

[6] = system: diffSH-SY5Y cells; assay: Neuroprotection in differentiated SH-SY5Y cells, MTT; type: cell-based, human; settings: H2O2 500 µM 24 h; 0, 2, 5, 10, 20, and 40 µM 24 h before
[7] = system: HepG2 cells; assay: Cytotoxicity, MTT assay, HepG2; type: cell-based; settings: Homo sapiens, HepG2; MTT, cytotoxicity; read-out: HepG2 IC50
Procedure, shortened: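 Cells treated with 5–200 µM compound (DMSO vehicle, four replicates) after overnight attachment. Viability read by MTT reduction (2 h, 37 °C, dark; formazan in DMSO, A570) relative to vehicle controls; IC50 from dose–response regression.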

[8] = system: SH-SY5Y cells; assay: Neuroprotection in the MPP+ neurotoxicity-induced model, MTT; type: cell-based, human; settings: MPP+ 700 µM 48 h; compounds 24 h before

O=C1CC(c2ccccc2)=Nc2ccccc2N1 [Compound 18, 4-Phenyl-1H-1,5-benzodiazepin-2(3H)-one]
Reduction in mitochondrial superoxide levels [1]: reduce mitochondrial superoxide levels in a dose-dependent manner
Intracellular ROS level reduction [2]: ROS level reduction at all doses
Effect on apoptotic cell populations [3]: reduced the number of late apoptotic cells
viability at 24 h, 10 µM [4]: 26.6%
viability at 24 h, 20 µM [4]: 28.1%
GSH/GSSG ratio [5]: improved the GSH/GSSG ratios of cells under oxidative stress, although without statistical significance
Neuroprotection, diffSH-SY5Y cell viability (MTT) [6]: dose-dependent neuroprotectant activity
IC50 [7]: 224 ± 35 µM
Neuroprotection, cell viability (MTT), MPP+ model [8]: small significant neuroprotection at 1 and 2 µM
